Measured values reported in US20140066462A1, “TREATMENT OF POLYCYSTIC DISEASE” (Intellikine LLC, priority 2011, published 2014).

What was measured:
mTOR kinase domain = mTOR kinase domain (Homo sapiens, UniProt P42345); assay: in vitro mTOR kinase assay (γ-32P-ATP, purified kinase domain); format: biochemical; settings: 10 μM ATP
Method: Purified mTOR kinase domain was incubated with inhibitors at 2- or 4-fold dilutions over a concentration range of 50-0.001 μM or with vehicle (0.1% DMSO) in the presence of 10 μM ATP, 2.5 μCi of γ-32P-ATP and substrate. Reactions were terminated by spotting onto nitrocellulose or phosphocellulose membranes, depending on the substrate; this membrane was then washed 5-6 times to remove unbound radioactivity and dried. Transferred radioactivity was quantified by phosphorimaging and IC50 values were calculated by fitting the data to a sigmoidal dose-response using Prism software.

PI3K (α, β, γ, and δ) = assay: selectivity of kinase inhibition, mTOR versus PI3K; format: biochemical; settings: selectivity mTOR over PI3K α
cellular proliferation = assay: inhibition of cellular proliferation; format: cell-based
mTOR1/2 signaling = assay: Western blot of kidney crude lysates of treated PKD(V/V) mice; format: in vivo; settings: 0.5 mg/kg p.o., kidney lysates 2 hours later
Method: (§1) In order to study mechanisms of selective intervention for treating PKD, PKD(V/V) (“V/V”) mice were used. V/V mice are an animal model of PKD which are homozygous for a mutation in PKD 1 (the gene implicated in 85% of PKD). (Yu S, et al. Proc. Natl. Acad. Sci. U.S.A. 2007; 104: 18688-18693.) These mice develop severe PKD rapidly during the postnatal period. P11 V/V mice were treated with Compound A (0.5 mg/kg; “+”) or vehicle (“−”) p.o. Animals were sacrificed 2 hours later and kidney crude lysates were prepared and subjected to Western blot analysis.
Whole kidneys were isolated from mice and immediately flash frozen. Tissues were ground using a mortar and pestle under a blanket of liquid nitrogen followed by homogenization in lysis buffer. Supernatants were loaded in gels and proteins were separated via electrophoresis. Primary antibodies were used to assess the following proteins: p-Akt (S473), p-Akt (T308), total-Akt, p-4E-BP1, total-4E-BP1, p-S6 ribosomal protein, and total-S6 ribosomal protein.

PKD(V/V) mice [1] = assay: body and kidney mass in PKD(V/V) mice treated P5-P11; format: in vivo
Method: as §1
(§2) To examine Compound A effects on kidney size in V/V mice, V/V mice were treated from P5-P11 with either vehicle or Compound A. Compound A dosing was 0.25 mg/kg on P5/P6, then 0.25 mg/kg bid on P7/P8, then 0.5 mg/kg bid on P9-11. Animals were sacrificed 2 hours after […] dose; kidneys were weighed, and one kidney was subjected to western blot and one to sectioning for histology.

PKD(V/V) mice [2] = assay: kidney histology (H&E sections) in PKD(V/V) mice treated P5-P11; format: in vivo; settings: P5-P11 dosing
Method: as §2
Sagittal sections of the left kidney from mice treated with vehicle or Compound A were fixed, embedded in paraffin, and sectioned for histological analysis as described in Piontek K B, et. al, (2004) J Am Soc Nephrol 15:3035-33043. Sections were stained with H&E at observed with a microscope at 4×, […], 20×, and 40× magnification. (FIGS. 6-9) Cyst volume was lower and parenchyma was increased in Compound A-treated mice, quantitated using ImageJ software. The number of glomeruli was increased in the Compound A treated section as compared to the vehicle treated section. […] (FIG. 9)

[3] = left kidney sagittal sections, ImageJ

mTOR kinase domain, sequence (P42345 2156-2469 limits assumed, species assumed): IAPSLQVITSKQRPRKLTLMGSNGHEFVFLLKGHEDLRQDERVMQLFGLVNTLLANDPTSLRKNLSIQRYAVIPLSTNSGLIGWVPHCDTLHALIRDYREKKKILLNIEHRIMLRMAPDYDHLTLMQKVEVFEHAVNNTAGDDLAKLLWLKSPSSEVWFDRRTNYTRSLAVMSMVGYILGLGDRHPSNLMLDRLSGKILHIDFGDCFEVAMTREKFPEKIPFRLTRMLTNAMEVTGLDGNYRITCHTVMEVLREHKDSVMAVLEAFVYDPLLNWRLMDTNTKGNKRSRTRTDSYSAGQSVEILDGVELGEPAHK

IC50 (mTOR kinase domain) [nM]	more effective in inhibiting mTOR activity than that of PI3K (α, β, γ, and δ) (PI3K (α, β, γ, and δ))	Body mass in mutant and in Het/WT mice (PKD(V/V) mice [1]; P5-P11, 0.25 mg/kg P5/P6, 0.25 mg/kg bid P7/P8, 0.5 mg/kg bid P9-11, p<0.05)	Structure (SMILES)	IC50 (cellular proliferation) [nM]	Baseline phosphorylation of S6 in wt and mutant mice (mTOR1/2 signaling)	S6-RP expression (mTOR1/2 signaling)	Akt S473 and T308 phosphorylation (mTOR1/2 signaling; P11 V/V mice)	Total Akt (mTOR1/2 signaling; P11 V/V mice)	p4E-BP1 in mutant mice (mTOR1/2 signaling; P11 V/V mice)	pS6-RP in mutant mice (mTOR1/2 signaling; P11 V/V mice)	Baseline phosphorylation and expression of 4E-BP1 in wt mice (mTOR1/2 signaling; wt mice)	kidney mass in Het/WT (PKD(V/V) mice [1]; Het/WT mice, P5-P11 dosing, p=0.22)	normalized kidney mass in Het/WT mice (PKD(V/V) mice [1]; Het/WT mice, P5-P11 dosing, p=0.5)	Average kidney mass, compared to vehicle treated mutants (PKD(V/V) mice [1]; V/V mutants, P5-P11 dosing, p=0.007)	Normalized kidney mass (combined kidney weight/body weight), compared with vehicle-treated mutants (PKD(V/V) mice [1]; V/V mutants, P5-P11 dosing, p=0.01)	number of glomeruli, compared to the vehicle treated section (PKD(V/V) mice [2]; 20× magnification)	appearance of the glomeruli, compared to the untreated kidney (PKD(V/V) mice [2]; 40× magnification)	Cyst volume (PKD(V/V) mice [2]; [3])	parenchyma (PKD(V/V) mice [2]; [3])
< 100	over 1000 ×	decreased	CC(C)(CO)n1nc(-c2ccc3oc(N)nc3c2)c2c(N)ncnc21 [Compound A]	10 to 100	markedly attenuated	relatively unaffected	moderately attenuated	unaffected	markedly inhibited	markedly inhibited	markedly attenuated	not significantly changed	no significant effect	significantly lower	significantly lower	increased	appeared normal	lower	increased
< 100	–	–	CC(CO)n1nc(-c2ccc3oc(N)nc3c2)c2c(N)ncnc21 (stereo not drawn) [Compound B]	–	–	–	–	–	–	–	–	–	–	–	–	–	–	–	–
< 100	–	–	CC(=O)Nc1nc2cc(-c3nn(C(C)C)c4ncnc(N)c34)ccc2o1 [Compound D]	–	–	–	–	–	–	–	–	–	–	–	–	–	–	–	–
